The source of these data is patent US11111238B2, “Coumarin derivatives, processes for their preparation and uses thereof for the treatment of cancer” (Lead Discovery Center GmbH, priority 2017, dated 2021).

One may read the IC50 as the concentration at which inhibition is half-maximal. Read a low IC50 as inhibition by little substance.

mitochondrial RNA-polymerase (POLRMT), sequence (Q8BKF1 42-1207): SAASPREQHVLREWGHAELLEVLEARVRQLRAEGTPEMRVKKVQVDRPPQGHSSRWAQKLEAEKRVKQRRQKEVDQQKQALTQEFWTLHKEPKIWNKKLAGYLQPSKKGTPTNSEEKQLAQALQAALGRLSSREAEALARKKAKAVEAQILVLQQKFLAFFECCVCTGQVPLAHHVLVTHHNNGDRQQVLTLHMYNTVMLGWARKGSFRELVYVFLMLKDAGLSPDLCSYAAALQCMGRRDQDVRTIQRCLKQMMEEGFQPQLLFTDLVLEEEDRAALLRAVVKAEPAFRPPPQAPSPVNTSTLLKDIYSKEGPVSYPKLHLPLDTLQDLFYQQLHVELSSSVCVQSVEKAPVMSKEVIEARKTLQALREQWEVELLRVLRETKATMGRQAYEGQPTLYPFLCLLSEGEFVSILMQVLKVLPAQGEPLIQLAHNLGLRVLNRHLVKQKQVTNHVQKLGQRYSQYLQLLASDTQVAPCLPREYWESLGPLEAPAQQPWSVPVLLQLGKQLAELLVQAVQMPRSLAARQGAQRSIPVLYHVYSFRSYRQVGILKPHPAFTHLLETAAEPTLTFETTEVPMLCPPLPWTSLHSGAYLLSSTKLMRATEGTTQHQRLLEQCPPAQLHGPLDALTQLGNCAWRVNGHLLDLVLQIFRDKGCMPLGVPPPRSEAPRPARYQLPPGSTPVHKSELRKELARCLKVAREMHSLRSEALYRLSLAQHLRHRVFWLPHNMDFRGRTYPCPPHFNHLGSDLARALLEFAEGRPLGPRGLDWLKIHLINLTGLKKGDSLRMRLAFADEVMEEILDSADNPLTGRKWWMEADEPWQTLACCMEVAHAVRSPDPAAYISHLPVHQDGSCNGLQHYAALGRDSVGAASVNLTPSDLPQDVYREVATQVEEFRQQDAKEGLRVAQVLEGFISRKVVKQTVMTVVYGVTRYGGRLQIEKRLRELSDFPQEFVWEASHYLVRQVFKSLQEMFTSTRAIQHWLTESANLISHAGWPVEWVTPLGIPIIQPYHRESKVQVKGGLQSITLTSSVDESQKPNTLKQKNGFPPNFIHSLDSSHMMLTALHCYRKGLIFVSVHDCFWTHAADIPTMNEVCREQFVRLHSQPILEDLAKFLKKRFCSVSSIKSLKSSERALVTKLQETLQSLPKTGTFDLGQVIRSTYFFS

The assay addresses mitochondrial RNA-polymerase (POLRMT) (Mus musculus, UniProt Q8BKF1). In words: Homogeneous TR-FRET assay for mitochondrial transcription activity. The class given is biochemical. As to conditions: homogeneous TR-FRET assay according to Example 4; activity class. A digest of the protocol: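 Mouse POLRMT, TFAM and TFB2M with linearized pUC-LSP template in 10 mM Tris-HCl pH 7.5, 10 mM MgCl2, 40 mM NaCl; compounds at 10 μM or serial dilution, 10 min RT preincubation. Started with 500 μM each […], 2 h RT; 407 bp RNA product detected by hybridized Eu-cryptate/ATTO647N probe TR-FRET (ex 340, em 665 nm).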
(Time-resolved FRET reads energy transfer from a long-lived donor to a nearby acceptor.)
As for `C[C@@H](Oc1ccc2c(-c3ccc(F)cc3Cl)cc(=O)oc2c1)C(=O)N1CCC[C@@H](C(=O)O)C1` [Compound 108, (3R)-1-[(2R)-2-[4-(2-chloro-4-fluoro-phenyl)-2-oxo-chromen-7-yl]oxypropanoyl]piperidine-3-carboxylic acid], the IC50 was < 0.02 µM. On to `C[C@@H](Oc1ccc2c(-c3ccccc3Cl)cc(=O)oc2c1)C(=O)N1CCC[C@H](CC(=O)O)C1` [Compound 103, 2-[(3R)-1-[(2R)-2-[4-(2-chlorophenyl)-2-oxo-chromen-7-yl]oxypropanoyl]-3-piperidyl]acetic acid], for which the IC50 is < 0.02 µM. In the case of `CC(Oc1ccc2c(-c3cccc(F)c3Cl)cc(=O)oc2c1)C(=O)NC1CC1` (stereo not shown) [Compound 61, 2-[4-(2-chloro-3-fluoro-phenyl)-2-oxo-chromen-7-yl]oxy-N-cyclopropyl-propanamide], the IC50 is 0.02 to 0.1 µM. The molecule `Cc1ccccc1-c1cc(=O)oc2cc(OC(C)C(=O)N3CCC(S(N)(=O)=O)C3)ccc12` (stereo not shown) [Compound 63, 1-[2-[4-(o-tolyl)-2-oxo-chromen-7-yl]oxypropanoyl]pyrrolidine-3-sulfonamide] came in with an IC50 of 0.02 to 0.1 µM. In turn, `Cc1ccccc1-c1cc(=O)oc2cc(OC(C)C(=O)N3CCC(F)(F)CC3)ccc12` (stereo not shown) [Compound 71, 7-[2-(4,4-difluoro-1-piperidyl)-1-methyl-2-oxo-ethoxy]-4-(o-tolyl)chromen-2-one] registered an IC50 of 0.02 to 0.1 µM.

With `C[C@@H](Oc1ccc2c(-c3ccc(F)cc3Cl)cc(=O)oc2c1)C(=O)N1CCC[C@H](C(N)=O)C1` [Compound 132, (3S)-1-[(2R)-2-[4-(2-chloro-4-fluoro-phenyl)-2-oxo-chromen-7-yl]oxypropanoyl]piperidine-3-carboxamide], the IC50 was < 0.02 µM.

Molecule `Cc1ccccc1-c1cc(=O)oc2cc(OC(C)C(=O)O)ccc12` (stereo not shown) [Compound 97, 2-[4-(o-tolyl)-2-oxo-chromen-7-yl]oxypropanoic acid] registered an IC50 of 0.1 to 1 µM. Under `Cc1ccccc1-c1cc(=O)oc2cc(OC(C)C(=O)N3CCCC(C)(C(=O)O)C3)ccc12` (stereo not shown) [Compound 43, 3-methyl-1-[2-[4-(o-tolyl)-2-oxo-chromen-7-yl]oxypropanoyl]piperidine-3-carboxylic acid] stands < 0.02 µM; under `C[C@@H](Oc1ccc2c(-c3ccc(F)cc3Cl)cc(=O)oc2c1)C(=O)N1CCC[C@H](CC(N)=O)C1` [Compound 133, 2-[(3R)-1-[(2R)-2-[4-(2-chloro-4-fluoro-phenyl)-2-oxo-chromen-7-yl]oxypropanoyl]-3-piperidyl]acetamide], < 0.02 µM; under `Cc1ccccc1-c1cc(=O)oc2cc(OC(C)C(=O)Nc3ccc(CCO)cc3)ccc12` (stereo not shown) [Compound 19, N-[4-(2-hydroxyethyl)phenyl]-2-[4-(o-tolyl)-2-oxo-chromen-7-yl]oxy-propanamide], < 0.02 µM.

`CC(Oc1ccc2c(-c3ccccc3Cl)cc(=O)oc2c1)C(=O)N1CCC(S(N)(=O)=O)C1` (stereo not shown) [Compound 77, 1-[2-[4-(2-chlorophenyl)-2-oxo-chromen-7-yl]oxypropanoyl]pyrrolidine-3-sulfonamide] gave an IC50 of 0.02 to 0.1 µM. The molecule `CC(Oc1ccc2c(-c3ccccc3Cl)cc(=O)oc2c1)C(=O)N1CCC(F)(F)CC1` (stereo not shown) [Compound 74, 4-(2-chlorophenyl)-7-[2-(4,4-difluoro-1-piperidyl)-1-methyl-2-oxo-ethoxy]chromen-2-one] registered an IC50 of 0.02 to 0.1 µM. Under `Cc1ccccc1-c1cc(=O)oc2cc(OC(C)C(=O)N3CCC[C@H](C(=O)O)C3)ccc12` (stereo partly drawn) [Compound 3, (3S)-1-[2-[4-(o-tolyl)-2-oxo-chromen-7-yl]oxypropanoyl]piperidine-3-carboxylic acid] stands < 0.02 µM; under `CCOC(=O)C(C)Oc1ccc2c(-c3ccccc3C)cc(=O)oc2c1` (stereo not shown) [Compound 58, ethyl 2-[4-(o-tolyl)-2-oxo-chromen-7-yl]oxypropanoate], 0.02 to 0.1 µM; under `CNC(=O)C(C)Oc1ccc2c(-c3ccccc3Cl)cc(=O)oc2c1` (stereo not shown) [Compound 51, 2-[4-(2-chlorophenyl)-2-oxo-chromen-7-yl]oxy-N-methyl-propanamide], < 0.02 µM. Then `CC(Oc1ccc2c(-c3ccccc3Cl)cc(=O)oc2n1)C(=O)N1CCC[C@H](C(=O)OC(C)(C)C)C1` (mixture of isomers) [Compound 171, tert-butyl rac-(3S)-1-[2-[4-(2-chlorophenyl)-2-oxo-pyrano[2,3-b]pyridin-7-yl]oxypropanoyl]piperidine-3-carboxylate], with 0.1 to 1 µM. As to `CC(Oc1ccc2c(-c3ccccc3Cl)cc(=O)oc2c1)C(=O)N1CCCC(C#N)C1` (stereo not shown) [Compound 48, 1-[2-[4-(2-chlorophenyl)-2-oxo-chromen-7-yl]oxypropanoyl]piperidine-3-carbonitrile], the IC50 was < 0.02 µM.

Consider `Cc1ccccc1-c1cc(=O)oc2cc(O[C@H](C)C(=O)N3CCC[C@H](C#N)C3)ccc12` [Compound 32, (3S)-1-[(2R)-2-[4-(o-tolyl)-2-oxo-chromen-7-yl]oxypropanoyl]piperidine-3-carbonitrile], for which the concentration for half-maximal inhibition (IC50) was < 0.02 µM. Then `CCc1ccccc1-c1cc(=O)oc2cc(O[C@H](C)C(=O)N3CCC[C@H](C(=O)O)C3)ccc12` [Compound 134, (3S)-1-[(2R)-2-[4-(2-ethylphenyl)-2-oxo-chromen-7-yl]oxypropanoyl]piperidine-3-carboxylic acid], with < 0.02 µM. Under `Cc1ccccc1-c1cc(=O)oc2cc(OC(C)C(=O)N3CC[C@H](C(=O)O)C3)ccc12` (stereo partly drawn) [Compound 22, (3S)-1-[2-[4-(o-tolyl)-2-oxo-chromen-7-yl]oxypropanoyl]pyrrolidine-3-carboxylic acid] stands < 0.02 µM; under `COC(=O)c1cc(NC(=O)[C@@H](C)Oc2ccc3c(-c4ccc(F)cc4Cl)cc(=O)oc3c2)ccn1` [Compound 156, methyl 4-[[(2R)-2-[4-(2-chloro-4-fluoro-phenyl)-2-oxo-chromen-7-yl]oxypropanoyl]amino]pyridine-2-carboxylate], 0.02 to 0.1 µM. Under `C[C@@H](Oc1ccc2c(-c3ccc(F)cc3Cl)cc(=O)oc2c1)C(=O)N1CCN[C@H](C(=O)O)C1` [Compound 138, (2S)-4-[(2R)-2-[4-(2-chloro-4-fluoro-phenyl)-2-oxo-chromen-7-yl]oxypropanoyl]piperazine-2-carboxylic acid] stands 0.02 to 0.1 µM; under `CCOC(=O)C(C)Oc1ccc2c(-c3ccccc3Cl)cc(=O)oc2c1` (stereo not shown) [Compound 40, ethyl 2-[4-(2-chlorophenyl)-2-oxo-chromen-7-yl]oxypropanoate], < 0.02 µM.

Turning to `Cc1ccccc1-c1cc(=O)oc2cc(OC(C)C(=O)N3CCCC3)ccc12` (stereo not shown) [Compound 5, 7-(1-methyl-2-oxo-2-pyrrolidin-1-yl-ethoxy)-4-(o-tolyl)chromen-2-one], the IC50 is < 0.02 µM. Under `COC(=O)C1CCCN(C(=O)C(C)Oc2ccc3c(-c4ccccc4Cl)cc(=O)oc3c2)C1` (stereo not shown) [Compound 7, methyl 1-[2-[4-(2-chlorophenyl)-2-oxo-chromen-7-yl]oxypropanoyl]piperidine-3-carboxylate] stands < 0.02 µM; under `CC(C)OC(=O)[C@@H](C)Oc1ccc2c(-c3ccccc3Cl)cc(=O)oc2c1` [Compound 64, isopropyl (2R)-2-[4-(2-chlorophenyl)-2-oxo-chromen-7-yl]oxypropanoate], 0.02 to 0.1 µM; under `Cc1ccccc1-c1cc(=O)oc2cc(OC(C)C(=O)N3CCCC(C#N)C3)ccc12` (stereo not shown) [Compound 41, 1-[2-[4-(o-tolyl)-2-oxo-chromen-7-yl]oxypropanoyl]piperidine-3-carbonitrile], < 0.02 µM. Then `CC(C)NC(=O)C(C)Oc1ccc2c(-c3cccc(F)c3Cl)cc(=O)oc2c1` (stereo not shown) [Compound 49, 2-[4-(2-chloro-3-fluoro-phenyl)-2-oxo-chromen-7-yl]oxy-N-isopropyl-propanamide], with < 0.02 µM; and `CC(C)(Oc1ccc2c(-c3ccccc3Cl)cc(=O)oc2c1)C(=O)O` [Compound 112, 2-[4-(2-chlorophenyl)-2-oxo-chromen-7-yl]oxy-2-methyl-propanoic acid], with 0.1 to 1 µM.

Molecule `C[C@@H](Oc1ccc2c(-c3c(Cl)cccc3Cl)cc(=O)oc2c1)C(=O)N1CCC[C@H](C(=O)O)C1` [Compound 163, (3S)-1-[(2R)-2-[4-(2,6-dichlorophenyl)-2-oxo-chromen-7-yl]oxypropanoyl]piperidine-3-carboxylic acid] yielded an IC50 of 0.1 to 1 µM. For the molecule `C[C@@H](Oc1ccc2c(-c3ccc(F)cc3Cl)cc(=O)oc2c1)C(=O)Nc1ccnc(C(=O)O)c1` [Compound 160, 4-[[(2R)-2-[4-(2-chloro-4-fluoro-phenyl)-2-oxo-chromen-7-yl]oxypropanoyl]amino]pyridine-2-carboxylic acid], the IC50 is < 0.02 µM.
